The IC50 is the concentration needed to halve the response being measured. Usually bioavailability stands for dose-corrected exposure relative to a reference, in per cent. A low value points to little systemic uptake. As usually defined, the half-life is the time needed for the level to fall by half in the phase considered. A high value points to slow loss. For orientation: clearance means the rate of elimination divided by the concentration. By Papp is commonly meant the rate of passage across a membrane or cell layer, normalised by area and donor concentration.

Values after ≈ are worked out from the molar mass of the structure shown. Active and inactive are the calls of the source.

Consider two molecules from ChEMBL document CHEMBL2203134, “Discovery of XL888: a novel tropane-derived small molecule inhibitor of HSP90” (Bioorg Med Chem Lett, 2012).

In data set [1] the test system is Mus musculus. Put plainly: Inhibition of Hsp90 in human NCI-N87 cells xenografted in mouse assessed as Hsp70 upregulation at 100 mg/kg administered QD for 3 days measured at 8 hrs post-last dose relative to control. In kind it is functional.
Data set [2] concerns NCI-N87. The data set can be described thus: Antiproliferative activity against human NCI-N87 cells overexpressing Her2 after 48 hrs by BrdU labeling assay. In kind it is functional, cell-based. The following applies: NCI-N87, 48 h. A general note: Dividing cells build labelled thymidine or BrdU into new DNA.
In data set [3] the target is T1, Heat shock protein HSP90 (Homo sapiens, UniProt P07900+P08238). Put plainly: Inhibition of Hsp90 in human NCI-N87 cells assessed as Her2 degradation after 24 hrs by Western blot analysis. In kind it is cell-based. (In general: Immunoblotting shows a protein as a band on a membrane.)
Data set [4] is described as follows: Oral bioavailability in rat at 5 mg/kg. In kind it is ADME, organism-based. The settings on record: in vivo.
In data set [5] the test system is HN5. The data set can be described thus: Antiproliferative activity against human HN5 cells overexpressing EGFR after 48 hrs by BrdU labeling assay. The following applies: HN5, 48 h. In kind it is functional, cell-based.
Data set [6] deals with Mus musculus. Put plainly: Inhibition of Hsp90 in human NCI-N87 cells xenografted in mouse assessed as Hsp70 upregulation at 100 mg/kg administered QD for 3 days measured at 96 hrs post-last dose relative to control. In kind it is functional.
Data set [7] can be described thus: Drug uptake in human NCI-N87 tumor xenografted in mouse at 100 mg/kg administered QD for 3 days measured at 24 hrs post-last dose. The following applies: human NCI-N87 tumor xenograft, read-out: Drug uptake. In kind it is ADME, organism-based, Neoplasm. Also on record: dose 100 mg/kg. On the technique in general: In xenograft studies the graft and the host belong to different species.

The test system of data set [8] is NCI-N87. The data set can be described thus: Antitumor activity against human NCI-N87 cells xenografted in mouse assessed as tumor regression at 100 mg/kg administered QD for 3 days in a week relative to control. The class given is functional.
Data set [9] has as its system A549. Put plainly: Antiproliferative activity against human A549 cells overexpressing Kras after 48 hrs by BrdU labeling assay. The class given is functional, cell-based. The settings on record: A549, 48 h.
Data set [10] concerns Plasma. The data set can be described thus: Plasma concentration in mouse xenografted with human NCI-N87 cells at 100 mg/kg administered QD for 3 days measured 96 hrs post-last dose. Also on record: dose 100 mg/kg. The class given is ADME, organism-based. The following applies: in vivo, BLD = below limit of detection.
In data set [11] the test system is NCI-N87. Put plainly: Antitumor activity against human NCI-N87 cells xenografted in mouse assessed as tumor growth inhibition at 60 mg/kg administered QD relative to control. The class given is functional. The settings on record: read-out: TGI.
Data set [12] relates to NCI-N87. Put plainly: Antitumor activity against human NCI-N87 cells xenografted in mouse assessed as tumor growth inhibition at 100 mg/kg administered QD for 3 days in a week relative to control. The class given is functional. The following applies: NCI-N87, 72 h, read-out: TGI.
Data set [13] is described as follows: Half life in rat at 5 mg/kg, iv. In kind it is ADME, organism-based. The following applies: in vivo. Also on record: dose 5 mg/kg, route intravenous.
Data set [14] deals with Mus musculus. The data set can be described thus: Inhibition of Hsp90 in human NCI-N87 cells xenografted in mouse assessed as Her2 degradation at 100 mg/kg administered QD for 3 days measured at 8 hrs post-last dose relative to control. In kind it is functional.
A short description of data set [15]: Plasma concentration in mouse xenografted with human NCI-N87 cells at 100 mg/kg administered QD for 3 days measured 24 hrs post-last dose. In kind it is ADME, organism-based. Also on record: dose 100 mg/kg.
The subject of data set [16] is SK-MEL-28. The data set can be described thus: Antiproliferative activity against human SK-MEL-28 cells overexpressing Braf after 48 hrs by BrdU labeling assay. In kind it is functional, cell-based. The settings on record: SK-MEL-28, 48 h.
A short description of data set [17]: Plasma concentration in mouse xenografted with human NCI-N87 cells at 100 mg/kg administered QD for 3 days measured 8 hrs post-last dose. Also on record: dose 100 mg/kg. In kind it is ADME, organism-based.
Data set [18] concerns Mus musculus. The data set can be described thus: Inhibition of Hsp90 in human NCI-N87 cells xenografted in mouse assessed as Her2 degradation at 100 mg/kg administered QD for 3 days measured up to 48 hrs post-last dose relative to control. The class given is functional.
Data set [19] can be described thus: Clearance in rat at 5 mg/kg, iv. Also on record: dose 5 mg/kg, route intravenous. The settings on record: in vivo. The class given is ADME, organism-based.
The nature of data set [20]: Drug uptake in human NCI-N87 tumor xenografted in mouse at 100 mg/kg administered QD for 3 days measured at 8 hrs post-last dose. Also on record: dose 100 mg/kg. The settings on record: human NCI-N87 tumor xenograft, read-out: Drug uptake. In kind it is ADME, organism-based, Neoplasm.
Data set [21] in a line: Apparent permeability across MDCK cells. The class given is ADME, cell-based, Canis lupus familiaris. The settings on record: dog.
Data set [22] deals with MDA-MB-453. The data set can be described thus: Antiproliferative activity against human MDA-MB-453 cells overexpressing Her2 after 48 hrs by BrdU labeling assay. The class given is functional, cell-based. The following applies: MDA-MB-453, 48 h.
For data set [23], the system named is Rattus norvegicus. Put plainly: Dose normalized AUC in rat at 5 mg/kg, iv. In kind it is ADME, organism-based. The settings on record: in vivo. Also on record: dose 5 mg/kg, route intravenous.
For data set [24], the system named is BT-474. Put plainly: Antiproliferative activity against human BT474 cells overexpressing Her2 after 48 hrs by BrdU labeling assay. The following applies: BT-474, 48 h. The class given is functional, cell-based.
Data set [25] concerns MCF7. Put plainly: Antiproliferative activity against human MCF7 cells overexpressing PI3K after 48 hrs by BrdU labeling assay. The class given is functional, cell-based. The settings on record: MCF7, 48 h.
The test system of data set [26] is Mus musculus. Put plainly: Inhibition of Hsp90 in human NCI-N87 cells xenografted in mouse assessed as Raf1 degradation at 100 mg/kg administered QD for 3 days measured at 8 hrs post-last dose relative to control. In kind it is functional.
In data set [27] the test system is NCI-H1975. Put plainly: Antiproliferative activity against human NCI-H1975 cells overexpressing EGFR after 48 hrs by BrdU labeling assay. The class given is functional, cell-based. The following applies: NCI-H1975, 48 h.
The subject of data set [28] is MKN-45. The data set can be described thus: Antiproliferative activity against human MKN45 cells overexpressing MET after 48 hrs by BrdU labeling assay. In kind it is functional, cell-based. The following applies: MKN-45, 48 h.
The subject of data set [29] is COLO 205. Put plainly: Antiproliferative activity against human COLO205 cells overexpressing Braf after 48 hrs by BrdU labeling assay. In kind it is functional, cell-based. The following applies: COLO 205, 48 h.
Data set [30] can be described thus: Drug uptake in human NCI-N87 tumor xenografted in mouse at 100 mg/kg administered QD for 3 days measured at 96 hrs post-last dose. In kind it is ADME, organism-based, Neoplasm. Also on record: dose 100 mg/kg. The following applies: human NCI-N87 tumor xenograft, read-out: Drug uptake.
The subject of data set [31] is Mus musculus. The data set can be described thus: Inhibition of Hsp90 in human NCI-N87 cells xenografted in mouse assessed as Raf1 degradation at 100 mg/kg administered QD for 3 days measured after 8 hrs post-last dose relative to control. Also on record: dose 100 mg/kg. In kind it is functional, organism-based.
The nature of data set [32]: Drug metabolism in mouse liver microsomes at 15 uM after 30 mins. In kind it is ADME, Microsome. The settings on record: read-out: Drug metabolism.
The test system of data set [33] is Mus musculus. Put plainly: Inhibition of Hsp90 in human COLO205 cells xenografted in mouse assessed as Her2 degradation at 100 mg/kg administered QD for 2 days measured 8 hrs post-last dose. In kind it is functional. The following applies: COLO 205.
For data set [34], the target named is T1, Heat shock protein HSP90. The data set can be described thus: Inhibition of Hsp90 in human A549 cells assessed as Raf1 degradation after 24 hrs by Western blot analysis. In kind it is cell-based.
Data set [35] is described as follows: Drug uptake in human COLO205 tumor xenografted in mouse at 100 mg/kg administered QD for 2 days measured 8 hrs post-last dose. In kind it is ADME, organism-based, Neoplasm. Also on record: dose 100 mg/kg. The settings on record: human COLO205 tumor xenograft, read-out: Drug uptake.
The subject of data set [36] is Mus musculus. The data set can be described thus: Inhibition of Hsp90 in human COLO205 cells xenografted in mouse assessed as Raf1 degradation at 100 mg/kg administered QD for 2 days measured 8 hrs post-last dose. The class given is functional. The following applies: COLO 205.
Data set [37] addresses T1, Heat shock protein HSP90. The data set can be described thus: Displacement of biotinylated geldanamycin from human His-tagged Hsp90 by TR-FRET assay. In kind it is protein assay.
A short description of data set [38]: Kinetic solubility of the compound. The class given is physicochemical. The following applies: read-out: Kinetic_solubility.
Data set [39] in a line: Drug metabolism in human liver microsomes at 15 uM after 30 mins. The settings on record: read-out: Drug metabolism. The class given is ADME, Microsome.

Consider `CC[C@@H](C)Nc1cc(C(=O)NC2CC3CCC(C2)N3c2ccc(C(=O)C3CC3)cn2)c(C)cc1C(N)=O` (some centres undefined), for which the inhibition in vivo at 100 mg/kg was 234% in [1]; 343% in [6]; greater than 100% in [12]; 92% in data set [14]; 75% in data set [18]; 56% in data set [26]. Moreover, the IC50 in data set [2] came out at 21.8 nM; in data set [3], 56 nM; in [5], 5.5 nM; in data set [9], 4.3 nM; in data set [16], 0.3 nM; in data set [22], 16 nM. Further, the IC50 is 0.1 nM in [24]; 4.1 nM in [25]; 0.7 nM in data set [27]; 45.5 nM in data set [28]; 11.6 nM in data set [29]. The bioavailability in data set [4] amounted to 30%. Further, the concentration at 24 h in data set [7] was 2860 nM; in data set [15], 70 nM. The Activity in data set [8] turned out to be 21%. Besides, the Cp entry in data set [10] is on record as “BLD”. Also, in data set [11], the inhibition in vivo at 60 mg/kg is 100%. This molecule also gave a half-life in data set [13] of 1.4 h. Moreover, the concentration at 8 h in [17] stood at 2260 nM; in [20], 5390 nM. In data set [19], the clearance is 15.3 mL/min/kg. The Papp in data set [21] turned out to be 32 ×10⁻⁶ cm/s. Moreover, in [23], the AUC/dose stood at 2.23 µM·kg·h/mg. The concentration at 96 h in [30] came to 1820 nM. Also, the inhibition result in data set [31] was “inactive”.
`COc1cccc(C(=O)NC2CC3CCC(C2)N3c2ccc(C(N)=O)cn2)c1C` (centres undefined) had a bioavailability in data set [4] of 81%. The metabolised at 0.5 h, 15 µM in [32] is 29%; in data set [39] it was 21%. The molecule also had a half-life in data set [13] of 2.1 h. The inhibition in vivo at 100 mg/kg in data set [33] turned out to be 63%. The IC50 in data set [34] was determined as 3800 nM; in data set [37] it was 641 nM. In addition, the concentration at 8 h in [35] was determined as 6700 nM. Moreover, in data set [19], the clearance is 6.15 mL/min/kg. The inhibition entry in data set [36] was “inactive”. Further, in data set [21], the Papp was determined as 13.3 ×10⁻⁶ cm/s. The molecule also had an AUC/dose in data set [23] of 6.3 µM·kg·h/mg. The solubility kinetic in data set [38] stood at 470 µM (≈ 185 µg/mL).
